“Also recorded” adds a separate entry of the source. One block for each compound: values may come before it.
Columns and labels:
UCP2 protein [1] = biological target: T1, UCP2 protein (Mus musculus, UniProt P70406); test: Respiration stimulation factor in mitochondria of recombinant yeast expressing UCP2; format: biochemical, mice; details: for activation of the activity of UCP2 protein: pH not stated
T1 construct: lacking the untranslated regions 5′ and 3′ is obtained by enzymatic amplification; expressed in transfected cells; host or cells: Saccharomyces cerevisiae diploid W303, vector pYeDP-1/8-10; isolated mitochondria
T1 sequence (P70406 1-309): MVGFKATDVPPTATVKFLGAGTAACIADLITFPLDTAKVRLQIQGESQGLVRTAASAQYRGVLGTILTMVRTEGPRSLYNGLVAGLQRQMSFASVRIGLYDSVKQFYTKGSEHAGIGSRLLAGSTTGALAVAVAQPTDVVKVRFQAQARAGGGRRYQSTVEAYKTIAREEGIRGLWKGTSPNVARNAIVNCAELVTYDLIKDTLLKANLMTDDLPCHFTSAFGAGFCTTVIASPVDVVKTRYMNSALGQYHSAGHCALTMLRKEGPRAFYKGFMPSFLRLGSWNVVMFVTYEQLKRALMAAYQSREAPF
Text: The effect of this type of compounds particularly on the activity of UCP2 protein, has been shown on a yeast model. The test consists in constructing yeast layers of recombinant Saccharomyces cervisiae yeasts being capable of expressing UCP2 protein, extracting UCP2 proteins from the mitochondria and measuring the activity of UCP2 protein in the presence or in the absence of retinoic acid. In the model which has been retained, the uncoupling activity of the UCP2 proteins is quantitatively measured by means of the factor of stimulation of respiration.
(§1) This factor corresponds to the ratio of respiration and baseline respiration, measured or in the absence of retinoic acid (when measurements are made at a constant pH but varying the concentration of retinoic acid) or at pH 6.8 (when measurements are made at a given concentration of retinoic acid, but varying the pH).
(§2) Respiration is determined by measurement of the quantity of consumed oxygen, expressed in nanomoles of oxygen per minute and milligram of mitochondrial proteins, the consumption of oxygen being directly linked to the quantity of substrate having been consumed by the mitochondria (in calories).
The cDNA of UCP2 proteins of mice (C. Fleury et al. (1997) Uncoupling protein-2: A novel gene linked to obesity and hyperinsulinaemia, Nature Genetics, 15, 269-272) lacking the untranslated regions 5′ and 3′ is obtained by enzymatic amplification with the following oligonucleotides:
The resulting DNA product is repaired with a Kleenow enzyme, thereafter cut with EcoRl and Sacl. This forces donation in the pYeDP-1/8-10 vector. In each case, the insertion of cDNA encoding for UCP2 protein in the pYeDP vector has been sequenced so as to verify that the encoding sequence had the expected properties. The UCP2-expressing pYeDP-YCP vector is introduced in a diploid W303 strain of Saccharomyces cervisiae yeast ([…]; ade2-10; his3-11,15; leu2-3,112; ura3-1; canl-100; trp-) by electroporation and the transformants are selected for their […].
A process derived from that described by Guérin et al. (Guérin B., Labbe P. et Somlo, M. (1979) Methods Enzymol; 55, 149-159) is used. 36 hours before the extraction of the mitochondria a pre-culture in SP-medium (0.67% o nitrogenated yeast base, 0.1% KH2PO4, 0.12% (NH4)2SO4, 0.1% glucose, 2% lactic acid, 0.1% casaminoacids, 20 mg/l triptophane, 40 mg/1 adenine of pH 4.5), 10 or 12 hours before the extraction, a dilution in SP-medium (2% galactose, 0.67% nitrogenated yeast base, 0.1% casaaminoacids, 20 mg/l triptophane and […] adenine, at an optical density of 0.35-0.4).
Protoplasts are prepared by enzymatic digestion with cytohelicase and the mitochondria are isolated by differential centrifugation after homogenization of the protoplasts obtained by enzymatic digestion of the cell wall.
Only quantitative measurement of mitochondrial respiration has been made for UCP2. This measurement is made at 20° C. in an oxygen-electrode chamber (Clark electrode) commercialized by the company HANSATECH. The incubation medium contains 0.65M mannitol, […] Tris/Maleate, 0.5 mM EGTA, 2 mM MgC12, 10 mMK2hpo4, 1 mg/ml ([…]) albumin pH6.8).
Mitochondria concentration is 0.15 mg/ml. NADH (3 mM) is used as substrate as mitochondria of Saccharomyces cervisiae are capable of oxidizing NADH of external origin).
The tests are performed varying any of the pH or the terinoïc acid concentration in the medium. The concentrations of free retinoic acid are esteemed up to some tens of nanomars (determined by fixing the molar ratio retinoic acid:albumin). The concentration of albumin is 0.1 mg/ml […]) in the respiration buffer and the tested pH are respectively 6.8; 7.1; 7.3 or 7.5. The further components of the buffer are identical to those in example 1 and in the same concentrations.

UCP1 protein [2] = biological target: T2, UCP1 protein (Rattus norvegicus, UniProt P04633); test: Respiration stimulation factor in mitochondria of recombinant yeast expressing UCP1; format: biochemical
T2 construct: The cDNA of the UCP1 protein which lacks the untranslated regions at 3′ and 5′ is obtained by enzymatic amplification; expressed in transfected cells; host or cells: Saccharomyces cerevisiae, vector pYeDP-1/8-10 (plasmid pYeDP-UCP+); isolated mitochondria
T2 sequence (P04633 1-307): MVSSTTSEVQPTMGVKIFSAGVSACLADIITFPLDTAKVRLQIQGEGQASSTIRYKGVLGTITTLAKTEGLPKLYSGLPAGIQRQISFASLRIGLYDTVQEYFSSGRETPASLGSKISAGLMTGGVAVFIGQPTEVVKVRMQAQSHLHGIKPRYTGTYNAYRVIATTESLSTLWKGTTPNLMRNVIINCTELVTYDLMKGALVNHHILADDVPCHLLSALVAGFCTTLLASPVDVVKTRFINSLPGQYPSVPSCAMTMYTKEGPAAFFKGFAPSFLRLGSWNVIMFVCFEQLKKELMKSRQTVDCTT
Method: as §1, §2
FIG. 2 represents a curve of response of yeast mitochondria to retinoic acid. In the abscissa, there appears the molar ratio of retinoic acid/albumin (albumin concentration: 1 micromole within the medium); in the ordinate, there appears the factor of stimulation of the baseline respiration. FIG. 2a was obtained at pH 6.8 and figure at pH 7.3.
The construction of the expression vectors, the recombinant Saccharomyces cervisiae strains, the preparation of the mitochondria and the measurement of the activity of the UCP1 protein are described in the publication of Arechaga et al. already cited in example 1. […]

[3] = test system: yeast mitochondria lacking UCP proteins; test: Membrane potential of yeast mitochondria lacking UCP proteins (control); format: biochemical, Saccharomyces cervisiae; details: FIG. 6a
Text: FIG. 6 evidences the variation in the membrane potentials and respiration of mitochondria in yeasts (reflecting the uncoupling activity of UCP1 protein) under the effect of the retinoic acid. The upper curve reflects oxygen consumption (expressed in nanomoles of oxygen per minute per milligram of mitochondrial proteins) and the lower curve the membrane potentials. FIG. 6a corresponds to measurements made in yeast mitochondria lacking UCP proteins and FIG. 6b corresponds to measurements made in yeast mitochondria wherein UCP1 protein is expressed. • N: designates the addition of NADH (respitation substrate) • R: designates the addition of retinoic acid (respectively at a molar ratio retinoic acid:albumin of 2:1 and 4:1) • G: designates the addition of 1 millimolar guanosine diphosphate (an inhibitor of UCP1 protein).

UCP1 protein [4] = biological target: T2, UCP1 protein; test: Membrane potential of yeast mitochondria expressing UCP1; format: biochemical; details: FIG. 6b, molar ratio retinoic acid:albumin 2:1 and 4:1
Text: There is also a qualitative method for determining the uncoupling activity of an UCP protein. It is the measurement of the mitochondrial membrane potential the reduction of which is an evidence of the decrease of the quality of the recovery of chemical energy at the level of the mitochondria. Activation of an uncoupling protein is reflected by de decrease of the membrane potential followed by an acceleration of the respiration.
FIG. 6 evidences the variation in the membrane potentials and respiration of mitochondria in yeasts (reflecting the uncoupling activity of UCP1 protein) under the effect of the retinoic acid. The upper curve reflects oxygen consumption (expressed in nanomoles of oxygen per minute per milligram of mitochondrial proteins) and the lower curve the membrane potentials. […]
This activity may be measured qualitatively or quantitatively, with the help of the parameters: • qualitatively: • The mitochondrial membrane potential; the increase of the activity of an uncoupling protein is reflected by a reduction of the membrane potential and a resulting increase in oxygen consumption. In turn, the increase corresponds to an increase in dissipation of energy. • quantitatively: • mitochondrial respiration (oxygen consumption) which is linked directly to the quantity of substrate consumed by the mitochondria. […]

UCP2 protein [5] = biological target: T1, UCP2 protein; test: Respiration stimulation factor in mitochondria of recombinant yeast expressing UCP2; format: biochemical, mice; details: FIG. 5; molar ratio acid:albumin 3:1 and 4:1

change of the activity of UCP2 protein when the concentration of retinoic acid increases (UCP2 protein [1]; molar ratio retinoic acid/albumin 3:1 vs 4:1, FIGS. 4a and 4b): slight increase | increase of the activity of UCP2 (respiration stimulation factor) (UCP2 protein [1]; pH 7.3, FIG. 2b): the increase is very sensitive | response of UCP1 protein (respiration stimulation factor) (UCP1 protein [2]; pH 6.8, FIG. 2a): responds
SMILES: CC1=C(/C=C/C(C)=C/C=C/C(C)=C/C(=O)O)C(C)(C)CCC1 [retinoic acid, all-trans retinoic acid]
increase of the activity of UCP2 (respiration stimulation factor) (UCP2 protein [1]; pH 6.8, FIG. 2a): no notable increase; also recorded: not the case | activation of the activity of UCP2 protein (UCP2 protein [1]): activates the dissipation of energy by UCP2 | response / uncoupling activity of UCP1 protein (UCP1 protein [2]; pH not stated, FIG. 3a for palmitic acid): capable of increasing the uncoupling activity | effect on mitochondrial membrane potential [3]: not observed | effect on mitochondrial membrane potential (UCP1 protein [4]): induces a reduction of the membrane potential

change of UCP2 activity with the pH and the increase of the concentration of palmitic acid (UCP2 protein [5]): slight increase
SMILES: CCCCCCCCCCCCCCCC(=O)O [palmitic acid]
activation of the activity of UCP2 protein (UCP2 protein [1]): does not have any effect; also recorded: not the case

activation of the activity of UCP2 protein (UCP2 protein [1]): No activation
SMILES: CCCCC/C=C\C/C=C\C/C=C\C/C=C\CCCC(=O)O [arachidonic acid]

activation of the activity of UCP2 protein (UCP2 protein [1]): No activation
SMILES: O=C(O)c1ccccc1O [salicylic acid]

activation of the activity of UCP2 protein (UCP2 protein [1]): No activation
SMILES: CC1=CC(=O)CC(C)(C)C1(O)/C=C/C(C)=C\C(=O)O (centres unmarked) [abscissic acid]

activation of the activity of UCP2 protein (UCP2 protein [1]): No activation
SMILES: CC1=C(/C=C/C(C)=C/C=C/C(C)=C/CO)C(C)(C)CCC1 [retinol]
